Results: patent US6355225B1, “Fullerene contrast agent for magnetic resonance imaging and spectroscopy” (Wm. Marsh Rice University TDA Research, Inc., priority 1999, dated 2002)

Key:
Format in all cases: physicochemical
[1] = Water proton relaxivity (T1), Bruker PC/20 relaxometer; conditions: 20 MHz (0.47 T), 40° C., four concentrations
Protocol: The paramagnetic fullerol's potential as an MRI relaxation agent was evaluated by direct measurement of its water proton relaxivity using a Bruker model PC/20 relaxometer (Bruker Ltd., Canada) operating at a fixed field of 20 MHz (0.47 T) and 40° C. Four separate measurements at four different concentrations were performed to determine the T1 relaxation. A plot of the results is shown in FIG. 3 and indicates a relaxivity of about 0.5 mM^−1sec^−. The relaxivity of the compound is thus considerably lower than the best currently available Gd-chelates (ca. […]) but is still large enough to be useful in the body.

[2] = Paramagnetism in solution by the NMR method (D2O solvent, t-butyl alcohol reference); conditions: 300 K
Text: (§1) The magnetic properties of the fullerol were characterized by several methods. […] A solid sample was further studied using a Quantum Design MPMS-5S […] magnetometer operating at 5 Tesla. […] After correction for the diamagnetic contribution of the sample (using data from C60 for the fullerene carbons and Pascal's constants for the OH groups), the final value of the effective magnetic moment, μb, of the C60(OH)32 is approximately 1.5 Bohr magnetons at 300 K. Given the large diamagnetic contribution, uncertainty in the diamagnetic correction factors, and assuming no spin orbit or other types of spin coupling, this is within the experimental error for predicting one free electron per fullerol molecule in the solid state. A measurement of the paramagnetism of the solution form of the acid fullerol was then conducted using the NMR method employing D2O as the solvent and t-butyl alcohol as the reference compound. Measurement of the chemical shift of the reference peaks indicated a paramagnetism of 2.1 Bohr magnetons at 300 K when in solution.

[3] = Water solubility of the C60(OH)32 fullerol
[4] = Effective magnetic moment of solid sample, Quantum Design MPMS-5S magnetometer at 5 Tesla; conditions: 300 K, after diamagnetic correction
Text: as §1

[5] = Air stability of the paramagnetic fullerol
Text: According to a second embodiment, a water-soluble, paramagnetic fullerene derivative comprising about 32 hydroxyl groups attached to C60 fullerene was synthesized and shown to be air-stable, paramagnetic, and an efficient water proton relaxation agent.
These experimental results make C60(OH)32 (or C60(OH)32^− or C60(OH)32^2−) the first reported water-soluble, air-stable fullerene paramagnetic radical.

C60(OH)32
water proton relaxivity (T1) [1]: about 0.5 mM^−1sec^− | paramagnetism in solution [2]: 2.1 Bohr magnetons | solubility in water [3]: at least 4 mM | effective magnetic moment [4]: approximately 1.5 Bohr magnetons | stability in air [5]: air-stable
